In experiment [1] the target is T1, Zinc finger protein mex-5 (Caenorhabditis elegans, UniProt Q9XUB2).
T1 sequence (Q9XUB2 whole entry): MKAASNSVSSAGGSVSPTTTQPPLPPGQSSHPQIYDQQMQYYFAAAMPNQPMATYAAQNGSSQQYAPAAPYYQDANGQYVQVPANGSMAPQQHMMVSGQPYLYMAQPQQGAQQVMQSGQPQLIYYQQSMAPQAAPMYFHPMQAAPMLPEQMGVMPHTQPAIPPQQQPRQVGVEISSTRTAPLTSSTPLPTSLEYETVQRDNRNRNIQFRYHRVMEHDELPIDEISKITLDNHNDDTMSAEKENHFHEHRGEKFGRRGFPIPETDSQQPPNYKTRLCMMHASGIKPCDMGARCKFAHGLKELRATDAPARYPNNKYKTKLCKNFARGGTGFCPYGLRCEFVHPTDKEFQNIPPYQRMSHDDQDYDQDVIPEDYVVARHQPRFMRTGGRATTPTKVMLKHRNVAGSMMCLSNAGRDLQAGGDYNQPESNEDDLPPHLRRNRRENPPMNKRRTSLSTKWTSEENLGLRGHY
Briefly: MEX-5/TCR-2 RNA interaction inhibitors, dose response, biochemical, C. elegans, fluorescence polarization (AID 1960). (In general: In fluorescence polarisation assays a small probe gives low polarisation when free and higher when bound to something large.)

The target of experiment [2] is T2, Cysteine protease ATG4B (Homo sapiens, UniProt Q9Y4P1).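 Also: Fluorescence-based dose-response confirmation assay measuring inhibition of ATG4B activity.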
T2 sequence (Q9Y4P1 whole entry): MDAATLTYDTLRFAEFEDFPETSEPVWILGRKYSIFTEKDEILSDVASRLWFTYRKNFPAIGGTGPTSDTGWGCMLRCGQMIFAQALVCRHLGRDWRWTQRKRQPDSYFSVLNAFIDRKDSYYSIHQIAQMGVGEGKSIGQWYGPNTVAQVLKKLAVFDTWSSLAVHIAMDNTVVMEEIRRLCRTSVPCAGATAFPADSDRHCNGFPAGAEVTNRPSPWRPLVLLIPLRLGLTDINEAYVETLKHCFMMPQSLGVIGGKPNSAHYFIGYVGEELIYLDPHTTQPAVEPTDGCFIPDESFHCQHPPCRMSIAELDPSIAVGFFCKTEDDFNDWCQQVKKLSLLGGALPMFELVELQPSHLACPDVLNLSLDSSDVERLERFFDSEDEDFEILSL
Format: functional.

The target of experiment [3] is Phospholipase A2 (Homo sapiens, UniProt P04054). Format: functional.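 Also: confirmatory dose-response counterscreen on phospholipase A2, testing hits that came from an ultra-high-throughput screen for ATG4B inhibitors.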
Experiment [4] addresses T3, Protein Tat (Human immunodeficiency virus type 1 group M subtype B (isolate HXB2)(HIV-1), UniProt P04608).
T3 sequence (P04608 whole entry): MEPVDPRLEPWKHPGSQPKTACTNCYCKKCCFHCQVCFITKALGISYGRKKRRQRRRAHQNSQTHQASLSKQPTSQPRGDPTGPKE
The format is functional.

Experiment [5] is described as follows: THP-1 cell cytotoxicity, dose response, cytotoxicity control for Vif-APOBEC3G degradation inhibitor project, THP-1 cells (AID 1117359). Format: functional. Particulars: Human immunodeficiency virus 1, THP-1.
Experiment [6] relates to Escherichia coli. Kind of experiment: microbe, parasite or virus in culture.
The test system of experiment [7] is Escherichia coli. Briefly: microbe, parasite or virus in culture. This is another data set of the same source.
The subject of experiment [8] is HeLa. Kind of experiment: HeLa cell cytotoxicity, dose response, cytotoxicity control for MITF activator project, CellTiter-Glo luminescence, cherry-pick samples (AID 540259). Particulars: Homo sapiens. The format is functional, cell-based. On the technique in general: In ATP-based viability assays light output follows the ATP content of the culture.
The target of experiment [9] is Dual specificity tyrosine-phosphorylation-regulated kinase 1A (Rattus norvegicus, UniProt Q63470). The format is biochemical, Homo sapiens.
A short description of experiment [10]: inhibitors of firefly luciferase expression or activity, dose response, H4 neuroglioma cells, luminescence (AID 1990). The format is functional, cell-based.
Experiment [11] is described as follows: Luminescence Cell-Based Dose Response HTS to Identify Inhibitors of 5'UTR Stem-Loop Driven Prion Protein mRNA Translation in H4 Neuroglioblastoma Cells. [Related pubchem assays: 1827 (Project Summary), 1813 (Primary HTS)]. The format is functional.
Experiment [12] addresses T4, Heat shock factor protein 1 (Mus musculus, UniProt P38532).
T4 sequence (P38532 whole entry): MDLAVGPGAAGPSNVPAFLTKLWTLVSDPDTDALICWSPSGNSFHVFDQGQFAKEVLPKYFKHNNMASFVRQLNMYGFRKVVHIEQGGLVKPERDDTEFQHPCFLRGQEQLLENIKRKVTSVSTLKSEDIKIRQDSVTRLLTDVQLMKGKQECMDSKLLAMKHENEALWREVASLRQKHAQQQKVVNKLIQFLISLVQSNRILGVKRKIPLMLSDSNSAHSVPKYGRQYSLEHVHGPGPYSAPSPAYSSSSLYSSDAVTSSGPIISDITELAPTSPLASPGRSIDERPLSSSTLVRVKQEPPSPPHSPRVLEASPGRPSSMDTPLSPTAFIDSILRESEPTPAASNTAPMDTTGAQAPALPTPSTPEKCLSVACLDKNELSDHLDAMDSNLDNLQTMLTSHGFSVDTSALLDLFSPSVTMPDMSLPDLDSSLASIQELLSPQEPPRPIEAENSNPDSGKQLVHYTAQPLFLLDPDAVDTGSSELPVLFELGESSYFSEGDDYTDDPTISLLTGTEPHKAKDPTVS
Kind of experiment: inhibition of MG132-induced HSE-luciferase signal, confirmation, cell-based, NIH3T3, luminescence, dose retest (AID 2382).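 Also: NIH3T3 fibroblasts with HSF1-driven luciferase reporter stressed by proteasome inhibitor MG132; luminescence from HSF1-driven luciferase expression after 8 hours of MG132 stress.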 Format: functional.

The nature of experiment [13]: inhibitors of SNCA 5'UTR-driven reporter translation, confirmation, H4 neuroglioma cells, luminescence (AID 1988). Format: functional, cell-based.
Experiment [14] deals with Jurkat. Kind of experiment: antigen receptor-induced NF-kB inhibitors, dose response, Jurkat, luciferase reporter, luminescence, B- and T-cell (AID 489004).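 Also: NF-kB luciferase reporter Jurkat cells stimulated with PMA plus ionomycin.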 The format is functional, cell-based. Particulars: Homo sapiens.
The nature of experiment [15]: cytotoxicity in HEK-293T NF-kB-Luc cells, dose response, cytotoxicity control for B/T-cell NF-kB inhibitor project, cell-based, uHTS hits (AID 489019).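 Also: IC50 reflects cytotoxicity as loss of cell viability.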 Format: functional.
The test system of experiment [16] is P388/ADR. Briefly: cells. Particulars: Mus musculus. Format: functional.
In experiment [17] the test system is SN12K1. Briefly: cells. Format: functional. Conditions: Homo sapiens.
The subject of experiment [18] is P388. Kind of experiment: cells. The format is functional. Conditions: Mus musculus.
The target of experiment [19] is Dual specificity protein kinase CLK1 (Homo sapiens, UniProt P49759). Kind of experiment: CLK1 kinase inhibitors, off-target check, dose response, selectivity assay for Dyrk1A inhibitor project, biochemical, cherry-picked samples (AID 588811).
Experiment [20] addresses Phospholipase D1 (Homo sapiens, UniProt Q13393). Kind of experiment: PLD1 purified enzyme concentration response. [Related pubchem assays (depositor defined):AID588854]. Format: functional.
The target in experiment [21] is Phospholipase D2 (Homo sapiens, UniProt O14939). Kind of experiment: PLD2 purified enzyme concentration response. [Related pubchem assays (depositor defined):AID588854]. The format is functional.
Experiment [22] relates to HEK293. Kind of experiment: cytotoxicity in HEK293T NF-kB-Luc cells, SAR follow-up, cytotoxicity control for NF-kB activator project, cell-based, resazurin fluorescence (AID 493251). Particulars: Homo sapiens. Format: functional.
Experiment [23] relates to Jurkat. Briefly: SAR Analysis of small molecule inhibitors of T-cell specific antigen receptor-induced NF-kB activation in a Jurkat cell line using a luminescence assay - Set 2. [Related pubchem assays (depositor defined):AID435003, AID435012, AID465]. Format: functional, cell-based. Particulars: Homo sapiens.
The subject of experiment [24] is HEK293. Briefly: SAR Analysis of small molecule inhibitors of T-cell specific antigen receptor-induced NF-kB activation in a HEK-293T cell line using a luminescence assay - Set 2. [Related pubchem assays (depositor defined):AID435003, AID435012, AID489026]. The format is functional, cell-based. Conditions: Homo sapiens.
For experiment [25], the target named is Protein Rev (Human immunodeficiency virus type 1 group M subtype B (isolate HXB2)(HIV-1), UniProt P04618). Briefly: inhibitors of Rev binding to RRE RNA, dose response, biochemical, fluorescence polarization, HIV-1 (AID 434976). Further details: species or system Human immunodeficiency virus 1.
For experiment [26], the target named is Female germline-specific tumor suppressor gld-1 (Caenorhabditis elegans, UniProt Q17339). Briefly: inhibitors of GLD-1 binding to TGE RNA, dose response, biochemical, fluorescence polarization, C. elegans (AID 2802).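 Also: fluorescence polarization of labeled TGE RNA bound by purified gld-1 protein.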
For experiment [27], the target named is T5, Caspase-3 (Homo sapiens, UniProt P42574).
T5 sequence (P42574 whole entry): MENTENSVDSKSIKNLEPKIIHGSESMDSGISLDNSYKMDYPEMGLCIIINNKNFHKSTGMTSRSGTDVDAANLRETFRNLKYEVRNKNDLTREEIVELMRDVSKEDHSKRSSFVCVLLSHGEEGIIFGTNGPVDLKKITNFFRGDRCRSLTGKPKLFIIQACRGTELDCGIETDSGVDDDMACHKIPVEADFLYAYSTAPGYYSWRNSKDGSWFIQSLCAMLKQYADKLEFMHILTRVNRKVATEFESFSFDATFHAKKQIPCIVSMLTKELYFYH
Briefly: procaspase-3 activators, dose response, biochemical, absorbance (AID 489014).

Experiment [28] addresses Caspase-7 (Homo sapiens, UniProt P55210). Briefly: procaspase-7 activators, dose response, counter-screen for procaspase-3 activator project, biochemical, absorbance (AID 489013). A general note: Counterscreens check selectivity or assay interference.
Experiment [29] addresses T6, Endoribonuclease toxin MazF (Escherichia coli K-12, UniProt P0AE70). Kind of experiment: MazF toxin RNase activators, dose response, biochemical, fluorescence, single-stranded RNA substrate, uHTS hits (AID 588481). Format: functional.
Experiment [30] has as its target T6, Endoribonuclease toxin MazF. Briefly: fluorescent RNA oligo signal without MazF, dose response, counter-screen for MazEF activator project, biochemical, fluorescence, single-stranded RNase substrate (AID 588502). The format is functional.

Active and inactive are the calls of the source.

The term EC50 denotes the concentration needed to bring the measured effect to its halfway point. In general, IC50 refers to the midpoint of a concentration-inhibition curve. What is called CC50 is the concentration giving 50% cytotoxicity. The AC50 is the concentration at which the activity in the assay is half-maximal. The term GI50 denotes the concentration that inhibits growth by half.

T6 sequence (P0AE70 whole entry): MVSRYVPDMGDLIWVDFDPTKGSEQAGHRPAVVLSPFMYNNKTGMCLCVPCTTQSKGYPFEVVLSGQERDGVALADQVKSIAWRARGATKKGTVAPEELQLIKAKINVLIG
Chain of Phospholipase D2 (O14939 whole entry): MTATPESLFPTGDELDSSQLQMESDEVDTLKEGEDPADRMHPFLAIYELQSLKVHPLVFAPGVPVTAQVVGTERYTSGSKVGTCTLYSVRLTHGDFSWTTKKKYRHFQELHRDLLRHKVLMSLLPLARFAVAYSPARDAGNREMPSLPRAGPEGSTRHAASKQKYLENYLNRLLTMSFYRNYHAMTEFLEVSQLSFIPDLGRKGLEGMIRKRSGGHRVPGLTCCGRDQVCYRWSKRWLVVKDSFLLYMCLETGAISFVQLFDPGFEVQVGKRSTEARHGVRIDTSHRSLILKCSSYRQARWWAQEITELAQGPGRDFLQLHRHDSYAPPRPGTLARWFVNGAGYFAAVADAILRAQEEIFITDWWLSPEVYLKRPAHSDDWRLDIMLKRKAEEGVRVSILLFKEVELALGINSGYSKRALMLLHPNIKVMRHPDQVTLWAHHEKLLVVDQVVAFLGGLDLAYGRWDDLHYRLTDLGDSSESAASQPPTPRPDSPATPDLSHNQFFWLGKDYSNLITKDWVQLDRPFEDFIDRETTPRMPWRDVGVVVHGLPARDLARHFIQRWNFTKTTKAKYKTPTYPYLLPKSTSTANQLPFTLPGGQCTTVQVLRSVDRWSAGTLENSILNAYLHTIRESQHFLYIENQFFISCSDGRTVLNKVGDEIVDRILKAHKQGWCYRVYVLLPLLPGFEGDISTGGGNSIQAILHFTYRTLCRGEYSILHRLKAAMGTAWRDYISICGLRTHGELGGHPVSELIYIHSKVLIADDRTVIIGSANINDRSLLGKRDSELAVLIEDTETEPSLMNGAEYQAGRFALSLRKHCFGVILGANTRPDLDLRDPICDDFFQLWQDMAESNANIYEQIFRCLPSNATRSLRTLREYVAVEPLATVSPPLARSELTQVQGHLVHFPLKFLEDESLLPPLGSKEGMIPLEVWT
Chain of Dual specificity protein kinase CLK1 (P49759 whole entry): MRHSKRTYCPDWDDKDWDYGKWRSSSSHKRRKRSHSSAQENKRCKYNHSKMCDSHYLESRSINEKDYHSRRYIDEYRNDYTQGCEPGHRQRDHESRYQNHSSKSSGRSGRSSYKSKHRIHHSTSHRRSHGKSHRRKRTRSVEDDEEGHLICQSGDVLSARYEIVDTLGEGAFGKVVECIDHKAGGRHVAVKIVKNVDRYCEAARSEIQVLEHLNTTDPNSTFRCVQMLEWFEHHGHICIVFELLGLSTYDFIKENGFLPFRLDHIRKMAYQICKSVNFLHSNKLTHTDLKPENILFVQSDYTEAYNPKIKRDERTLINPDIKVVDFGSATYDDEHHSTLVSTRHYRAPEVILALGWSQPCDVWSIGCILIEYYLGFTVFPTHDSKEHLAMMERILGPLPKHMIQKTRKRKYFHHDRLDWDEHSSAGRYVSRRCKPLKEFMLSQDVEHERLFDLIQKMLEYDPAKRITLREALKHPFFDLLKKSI
Chain of Female germline-specific tumor suppressor gld-1 (Q17339 whole entry): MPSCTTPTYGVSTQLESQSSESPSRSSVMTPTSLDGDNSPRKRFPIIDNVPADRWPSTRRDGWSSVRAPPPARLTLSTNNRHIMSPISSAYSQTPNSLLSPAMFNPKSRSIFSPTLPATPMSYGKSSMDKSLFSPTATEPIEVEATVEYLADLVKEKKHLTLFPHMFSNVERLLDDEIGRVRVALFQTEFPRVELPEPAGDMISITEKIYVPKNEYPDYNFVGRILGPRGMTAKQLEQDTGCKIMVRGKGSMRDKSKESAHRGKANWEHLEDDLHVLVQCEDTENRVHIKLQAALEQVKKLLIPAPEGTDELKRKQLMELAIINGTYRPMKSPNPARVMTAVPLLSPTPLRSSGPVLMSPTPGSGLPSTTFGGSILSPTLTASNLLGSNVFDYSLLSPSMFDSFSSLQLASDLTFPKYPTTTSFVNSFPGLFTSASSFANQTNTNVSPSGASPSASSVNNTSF
Chain of Phospholipase A2 (P04054 whole entry): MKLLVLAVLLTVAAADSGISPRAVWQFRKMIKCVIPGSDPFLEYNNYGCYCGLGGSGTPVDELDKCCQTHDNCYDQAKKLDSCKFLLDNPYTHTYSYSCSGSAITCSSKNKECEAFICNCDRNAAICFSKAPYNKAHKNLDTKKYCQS
Chain of Caspase-7 (P55210 24-198 limits assumed): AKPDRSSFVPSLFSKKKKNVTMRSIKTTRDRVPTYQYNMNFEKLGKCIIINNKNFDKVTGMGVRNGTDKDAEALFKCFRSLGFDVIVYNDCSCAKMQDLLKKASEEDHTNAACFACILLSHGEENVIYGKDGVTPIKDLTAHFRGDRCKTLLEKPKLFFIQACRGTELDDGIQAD
Chain of Caspase-7 (P55210 207-303 limits assumed): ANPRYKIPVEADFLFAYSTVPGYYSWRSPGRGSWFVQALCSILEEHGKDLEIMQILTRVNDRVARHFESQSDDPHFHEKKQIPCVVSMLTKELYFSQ
Chain of Protein Rev (P04618 whole entry): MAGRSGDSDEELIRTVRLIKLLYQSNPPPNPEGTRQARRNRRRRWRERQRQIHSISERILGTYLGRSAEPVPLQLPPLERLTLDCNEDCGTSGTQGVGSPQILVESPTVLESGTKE
Chain of Phospholipase D1 (Q13393 whole entry): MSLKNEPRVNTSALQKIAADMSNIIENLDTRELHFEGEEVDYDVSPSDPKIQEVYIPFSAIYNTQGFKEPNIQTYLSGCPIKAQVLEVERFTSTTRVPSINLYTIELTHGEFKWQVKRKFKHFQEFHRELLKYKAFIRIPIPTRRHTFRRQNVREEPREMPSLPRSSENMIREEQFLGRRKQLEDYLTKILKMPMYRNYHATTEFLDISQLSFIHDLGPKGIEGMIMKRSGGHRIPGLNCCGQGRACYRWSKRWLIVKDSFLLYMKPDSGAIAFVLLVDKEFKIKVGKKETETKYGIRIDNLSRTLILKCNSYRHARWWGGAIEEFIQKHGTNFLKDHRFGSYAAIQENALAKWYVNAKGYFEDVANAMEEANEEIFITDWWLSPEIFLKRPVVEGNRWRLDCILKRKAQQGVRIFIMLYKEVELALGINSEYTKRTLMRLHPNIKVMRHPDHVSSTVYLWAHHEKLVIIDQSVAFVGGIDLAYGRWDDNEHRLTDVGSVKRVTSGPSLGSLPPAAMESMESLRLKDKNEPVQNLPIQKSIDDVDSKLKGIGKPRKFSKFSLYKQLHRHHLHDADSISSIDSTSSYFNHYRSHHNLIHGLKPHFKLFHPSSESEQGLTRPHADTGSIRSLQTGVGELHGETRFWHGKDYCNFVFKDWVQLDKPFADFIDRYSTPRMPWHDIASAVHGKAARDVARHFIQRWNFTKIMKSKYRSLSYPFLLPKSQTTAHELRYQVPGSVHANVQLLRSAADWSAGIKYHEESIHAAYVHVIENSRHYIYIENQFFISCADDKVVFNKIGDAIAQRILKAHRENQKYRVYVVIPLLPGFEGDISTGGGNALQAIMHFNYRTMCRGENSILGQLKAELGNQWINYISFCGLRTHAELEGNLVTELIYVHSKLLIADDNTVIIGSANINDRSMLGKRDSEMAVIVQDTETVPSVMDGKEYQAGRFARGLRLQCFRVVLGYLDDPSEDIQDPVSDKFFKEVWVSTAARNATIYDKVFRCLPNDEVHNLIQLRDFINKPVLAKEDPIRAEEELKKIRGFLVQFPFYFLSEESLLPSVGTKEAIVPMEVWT

Regarding `C[C@H]1c2cccc(O)c2C(=O)C2=C(O)[C@]3(O)C(=O)C(C(N)=O)=C(O)[C@@H](N(C)C)[C@@H]3[C@@H](O)[C@@H]21`, in experiment [1], the EC50 was 37.9 µM (active). Further, the half-inhibitory concentration (IC50) in experiment [2] is 10.4 µM (active); in [3], 42.9 µM (inactive); in experiment [4], > 100 µM (active). Further, the CC50 in [5] was 36 µM (active). The concentration at half-maximal activity (AC50) in experiment [6] was 20.8 µM (active); in [7], 0.783 µM (active).
`Cc1ccc(NC(=O)C(=O)NCc2ccccn2)cc1`: in experiment [8], the AC50 is > 350 µM (inactive).
As to `COc1ccc(C=C2SC(=S)NC2=O)cc1`, the AC50 in experiment [9] was 0.104 µM (active).
On to `Nc1nc(Cl)nc2c1ncn2C1CC(O)C(CO)O1` (stereo not given), for which the concentration for a half-maximal effect (EC50) in experiment [10] is 0.544 µM (active); in experiment [11], 3.61 µM (active); in experiment [12], 79.9 µM (active); in experiment [13] it was 0.567 µM (active). The IC50 in experiment [14] was 2.36 µM (active); in experiment [15], > 80 µM (inactive). Also, the results for the concentration for 50% growth inhibition (GI50) in experiment [16], in experiment [17] and in experiment [18] were 0.0535 µM (active), 0.695 µM (active) and 0.0428 µM (active), respectively.
Regarding `Clc1cc(Cl)cc(CNc2ncncc2-c2ccc3c(c2)OCO3)c1`, the concentration at half-maximal activity (AC50) in experiment [19] was 0.0305 µM (active).
On to `O=C(NCCN1CCC2(CC1)C(=O)NCN2c1ccc(Br)cc1)c1cnc2ccccc2c1`, for which the results for the concentration for half-maximal inhibition (IC50) in [20] and in experiment [21] were 3.04 µM (active) and 0.13 µM (active), respectively.
Turning to `Cc1ccc(C(NC(=O)C(C)C)c2ccc3cccnc3c2O)cc1` (stereo not given), the IC50 in experiment [22] was 8.28 µM (active); in experiment [23], 3.26 µM (active); in experiment [24], 6.33 µM (active).
On to `CC(=O)Oc1cccc2c1C(=O)c1c(OC(C)=O)cc(C(=O)O)cc1C2=O` [DIACEREIN], for which the figures for the IC50 in [25] and in [26] were > 75.4 µM (not active) and 7.31 µM (active), respectively. The half-maximal effective concentration (EC50) in experiment [27] is 7.89 µM (active); in experiment [28], 14.8 µM (inactive); in experiment [29], > 99 µM (inactive); in experiment [30], > 99 µM (inactive).

(Values after ChEMBL document CHEMBL1201862, “PubChem BioAssay data set” (2004).)
